Test results: patent publication US6958343B2, “Thiazolopyrimidines and their use as modulators of chemokine receptor activity” (AstraZeneca, AB, priority 2000, dated 2005)

melting point | Structure (SMILES)
183 to 185 °C | C[C@H](CO)Nc1nc(SCc2ccno2)nc2nc(N)sc12 [Example 9, (2R)-2-[[2-Amino-5-[(5-isoxazolylmethyl)thio]thiazolo[4,5-d]pyrimidin-7-yl]amino]-1-propanol]
250 to 252 °C | Cc1nc(CSc2nc(NC(C)(C)CO)c3sc(N)nc3n2)cs1 [Example 11, 2-[[2-Amino-5-[[(2-methyl-4-thiazolyl)methyl]thio]thiazolo[4,5-d]pyrimidin-7-yl]amino]-2-methyl-1-propanol]
158 to 160 °C | Cc1nc(CSc2nc(NC(CO)CO)c3sc(N)nc3n2)cs1 [Example 10, 2-[[2-Amino-5-[[(2-methyl-4-thiazolyl)methyl]thio]thiazolo[4,5-d]pyrimidin-7-yl]amino]-1,3-propanediol]
